Assay results from patent US11485736B2 (KSQ Therapeutics, Inc., priority 2018, dated 2022).

molecular target: USP1/UAF1 (Homo sapiens (Human), UniProt O94782); experiment: Deubiquitination assay for USP1/UAF1 activity (ubiquitin-rhodamine 110); type: biochemical; details: Table 2; 0.05 nM USP1/UAF1, 150 nM ubiquitin-rhodamine
Method: Certain Compounds of the Disclosure were assessed for USP1/UAF1 activity in a Ubiquitin Rhodamine assay modified from those described previously.
Deubiquitinase activity was measured using ubiquitin-rhodamine 110 as a substrate. Cleavage of the amide bond between rhodamine and the c-terminal glycine of ubiquitin yields an increase in fluorescence signal. The assay was conducted in 20 ul total volume of assay buffer (50 mM Tris-HCl, pH 7.8, 0.5 mM EDTA, 0.01% Bovine Serum Albumin, 1 mM DTT, 0.01% Tween-20), and 0.05 nM USP1/UAF1 enzyme.
Compounds, dissolved in DMSO were tested in dose response format, beginning at 10 uM.
Compounds depicted below were added to enzyme/assay buffer mix and incubated 10 min.
Data for all assay formats was calculated as percent inhibition compared with control wells. […] IC50 values were calculated using the standard four parameter curve fitting algorithm in either Prism GraphPad (La Jolla, Calif.) software, or Collaborative Drug Discovery (Burlingame, Calif.) CDD Vault.

USP1/UAF1, sequence (O94782 whole entry): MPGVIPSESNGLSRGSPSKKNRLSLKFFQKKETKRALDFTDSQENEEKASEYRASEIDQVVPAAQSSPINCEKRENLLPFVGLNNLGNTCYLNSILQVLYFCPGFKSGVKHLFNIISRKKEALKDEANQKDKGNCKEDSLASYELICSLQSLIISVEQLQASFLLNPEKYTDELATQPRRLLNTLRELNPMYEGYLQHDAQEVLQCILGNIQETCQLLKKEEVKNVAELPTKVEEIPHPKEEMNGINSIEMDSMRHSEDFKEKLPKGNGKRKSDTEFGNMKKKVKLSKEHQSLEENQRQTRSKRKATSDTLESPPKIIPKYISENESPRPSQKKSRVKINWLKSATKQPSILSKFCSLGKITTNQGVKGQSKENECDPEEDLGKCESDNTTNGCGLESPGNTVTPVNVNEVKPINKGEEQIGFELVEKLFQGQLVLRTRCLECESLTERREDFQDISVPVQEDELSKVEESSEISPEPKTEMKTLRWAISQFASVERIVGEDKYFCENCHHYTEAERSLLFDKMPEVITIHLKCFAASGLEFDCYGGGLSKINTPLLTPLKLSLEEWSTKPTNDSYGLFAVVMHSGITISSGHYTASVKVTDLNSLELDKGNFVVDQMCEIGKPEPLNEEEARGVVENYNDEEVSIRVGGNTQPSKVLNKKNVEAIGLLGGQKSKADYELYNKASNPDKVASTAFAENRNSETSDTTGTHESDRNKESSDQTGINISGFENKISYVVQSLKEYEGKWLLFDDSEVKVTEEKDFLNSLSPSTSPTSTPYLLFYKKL
USP1/UAF1, sequence (Q8TAF3 whole entry partner): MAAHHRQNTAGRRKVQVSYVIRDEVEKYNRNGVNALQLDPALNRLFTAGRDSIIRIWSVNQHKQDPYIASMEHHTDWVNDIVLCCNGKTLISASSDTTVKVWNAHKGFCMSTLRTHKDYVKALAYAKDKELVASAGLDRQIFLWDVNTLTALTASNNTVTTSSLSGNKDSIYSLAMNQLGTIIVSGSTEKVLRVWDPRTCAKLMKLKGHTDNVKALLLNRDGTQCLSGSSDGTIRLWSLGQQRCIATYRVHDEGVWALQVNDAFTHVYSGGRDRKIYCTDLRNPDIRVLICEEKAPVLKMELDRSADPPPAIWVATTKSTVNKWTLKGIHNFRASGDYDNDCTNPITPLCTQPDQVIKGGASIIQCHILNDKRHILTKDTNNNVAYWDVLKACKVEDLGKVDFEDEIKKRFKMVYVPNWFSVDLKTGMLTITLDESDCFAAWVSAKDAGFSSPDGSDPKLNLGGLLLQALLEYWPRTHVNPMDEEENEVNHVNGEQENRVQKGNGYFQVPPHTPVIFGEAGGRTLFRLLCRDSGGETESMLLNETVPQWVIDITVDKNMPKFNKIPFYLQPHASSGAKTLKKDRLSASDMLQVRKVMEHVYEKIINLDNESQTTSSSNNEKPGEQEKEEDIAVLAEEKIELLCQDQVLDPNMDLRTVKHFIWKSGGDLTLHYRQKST

Row | IC50 | SMILES
1 | < 10 nM | Cc1nn(Cc2ccc(-c3nc(C(F)(F)F)cn3C)cc2)c2nc(-c3ccccc3C(C)C)ncc12 [drawing 729]
2 | < 10 nM | CC(C)c1ccccc1-c1ncc2cnn(Cc3ccc(-c4nc(C(F)(F)F)cn4C)cc3)c2n1 [drawing 730]
3 | 10 to 100 nM | COc1nccc(C)c1-c1ncc2cnn(Cc3ccc(-c4nc(C(F)(F)F)cn4C)cc3)c2n1 [drawing 711]
4 | 100 to 200 nM | CCS(=O)(=O)c1ccccc1-c1ncc2cnn(Cc3ccc(-c4nc(C(F)(F)F)cn4C)cc3)c2n1 [drawing 709]

same assay, conditions: Table 3; 0.05 nM USP1/UAF1, 150 nM ubiquitin-rhodamine

Row | SMILES | IC50
5 | CCn1cc(C(F)(F)F)nc1-c1ccc(Cn2ncc3cnc(-c4c(OCCF)ncnc4C4CC4)nc32)cc1 [drawing 741] | 10 to 100 nM
6 | COc1ncnc(C2CC2)c1-c1ncc2cnn(Cc3ccc(-c4nc(OC)n(C)n4)cc3)c2n1 | > 200 nM
7 | COc1ncnc(C2CC2)c1-c1ncc2cnn(Cc3ccc(-c4nc(C(F)(F)F)cn4C4CCC4)cc3)c2n1 [drawing 732] | < 10 nM
8 | COc1ncnc(C2CC2)c1-c1ncc2cnn(Cc3ccc(-c4nc(C(F)(F)F)cn4C)c(F)c3)c2n1 [drawing 746] | 10 to 100 nM
9 | COc1ncnc(C2CC2)c1-c1ncc2cnn(Cc3ccc(-c4nc(C(F)(F)F)cn4C4CC4)cc3)c2n1 [drawing 739] | 10 to 100 nM
10 | COc1ncnc(OC)c1-c1ncc2cnn(Cc3ccc(-c4nc(C(F)(F)F)cn4C)cc3)c2n1 [drawing 766] | 10 to 100 nM
11 | Cn1cc(C(F)(F)F)nc1-c1ccc(Cn2ncc3cnc(-c4c(C5CC5)ncnc4N4CCCC4)nc32)cc1 | > 200 nM
12 | CCn1cc(C(F)(F)F)nc1-c1ccc(Cn2ncc3cnc(-c4c(OC)ncnc4OC)nc32)cc1 [drawing 755] | 10 to 100 nM
13 | CCOc1cc(C(F)(F)F)nn1-c1ccc(Cn2ncc3cnc(-c4c(OC)ncnc4C4CC4)nc32)cc1 [drawing 735] | < 10 nM
14 | Cc1ncnc(N(C)C)c1-c1ncc2cnn(Cc3ccc(-n4nc(C(F)(F)F)cc4C)cc3)c2n1 | > 200 nM
15 | CCn1cc(C(F)(F)F)nc1-c1ccc(Cn2ncc3cnc(-c4c(OCc5ccccc5)ncnc4C4CC4)nc32)cc1 | 100 to 200 nM
16 | COc1ncnc(C)c1-c1ncc2cnn(Cc3ccc(-n4nc(C(F)(F)F)cc4OC)cc3)c2n1 | 100 to 200 nM
17 | CNc1ncnc(C2CC2)c1-c1ncc2cnn(Cc3ccc(-c4nc(C(F)(F)F)cn4C)cc3)c2n1 | 10 to 100 nM
18 | COc1ncnc(C2CC2)c1-c1ncc2cnn(Cc3ccc(-n4nc(C#N)cc4C)cc3)c2n1 | 10 to 100 nM

Other lines, results leading:

Row | IC50 | SMILES
19 | 10 to 100 nM | COc1ncnc(C2CC2)c1-c1ncc2cnn(Cc3ccc(-c4nc(C(F)(F)F)cn4C4CN(C)C4)cc3)c2n1 [drawing 775]
20 | 10 to 100 nM | CSc1ncnc(C)c1-c1ncc2cnn(Cc3ccc(-n4nc(C(F)(F)F)cc4C)cc3)c2n1 [drawing 779]
21 | 10 to 100 nM | COc1ncnc(C2CC2)c1-c1ncc2cnn(Cc3ccc(-c4nc(C(F)(F)F)c5n4CCNC5)cc3)c2n1 [drawing 773]

same assay, conditions: Table 4; 0.05 nM USP1/UAF1, 150 nM ubiquitin-rhodamine

Row | IC50 | SMILES
22 | 10 to 100 nM | COc1ncnc(C2CC2)c1-c1ncc2nc(C3CCC3)n(Cc3ccc(-n4nc(C(F)(F)F)cc4C)cc3)c2n1 [drawing 823]
23 | 10 to 100 nM | COc1ncnc(C2CC2)c1-c1ncc2c(OC)nn([C@@H](C)c3ccc(-c4nc(C(F)(F)F)cn4C(C)C)cc3)c2n1 [drawing 814]
24 | 10 to 100 nM | COc1ncnc(C2CC2)c1-c1ncc2c(OC)nn(Cc3ccc(-c4cn(C(C)C)c(C(F)(F)F)n4)cc3)c2n1 [drawing 807]
25 | 100 to 200 nM | COc1ncnc(C2CC2)c1-c1ncc2nc(C)n(Cc3ccc(-c4nc(C(F)(F)F)cn4C)cc3)c2n1 [drawing 821]
26 | 100 to 200 nM | COc1ncnc(C2CC2)c1-c1ncc2ncn(Cc3ccc(-n4nc(C(F)(F)F)cc4C)cc3)c2n1 [drawing 830]
27 | 10 to 100 nM | CCc1nc2cnc(-c3c(OC)ncnc3C3CC3)nc2n1Cc1ccc(-n2nc(C(F)(F)F)cc2C)cc1 [drawing 825]
28 | 10 to 100 nM | CCn1cc(C(F)(F)F)nc1-c1ccc([C@H](C)n2nc(OC)c3cnc(-c4c(OC)ncnc4C4CC4)nc32)cc1 [drawing 813]
